{"source": "patent US20210308040A1", "about": "“KETAMINE ORAL TRANSMUCOSAL DELIVERY SYSTEM” (GUANGZHOU DAZHOU BIOMEDICINE LTD., priority 2018, published 2021)", "origin": "cited, not measured here", "key": {"[1]": {"conditions": "33 CRPS patients; about 23 mg/hr for about 4.7 days"}, "[2]": {"conditions": "ketamine 0.3 mg/kg vs morphine 0.1 mg/kg, intravenous push"}, "[3]": {"conditions": "in vivo"}, "[4]": {"assay": "not given", "remark": "listed apart in the source"}, "NMDAR": {"test_system": "NMDAR", "conditions": "rodent species"}, "[5]": {"assay": "not given", "remark": "listed apart in the source"}, "[6]": {"test_system": "experimentally induced ischemic pain"}, "NMDA receptor": {"test_system": "NMDA receptor", "conditions": "in vitro"}, "orofacial pain": {"test_system": "orofacial pain", "conditions": "fixed doses"}, "[7]": {"conditions": "0 to 24 hours postoperatively; bolus 0.5 mg/kg and infusion 0.25 mg/kg/hr"}}, "data": [{"smiles": "CNC1(c2ccccc2Cl)CCCCC1=O", "note": "(racemic) [ketamine]", "values": [{"measurement": "mean immediate response (% relief)", "setting": "[1]", "value": "≤ 92", "unit": "%"}, {"measurement": "patients with alteration in hepatic enzyme profile", "setting": "[1]", "value": "four patients"}, {"measurement": "patients with hallucinations", "setting": "[1]", "value": "six patients"}, {"measurement": "primary change in mean pain scores versus morphine", "setting": "[2]", "value": "no significant differences"}, {"measurement": "absolute oral bioavailability", "setting": "humans", "value": "10-20%"}, {"measurement": "half-life", "setting": "in vivo", "value": "2 to 3", "unit": "h"}, {"measurement": "systemic (primarily hepatic) clearance", "setting": "in vivo", "value": "about 19 ml/min·kg"}, {"measurement": "onset of antidepressant effect after administration", "setting": "[3]", "value": "≤ 2", "unit": "h"}, {"measurement": "indications of liver toxicity", "setting": "[4]; 39 clinical trials, IV infusion rate less than 1.2 mg/kg/h, bolus less than 1 mg/kg", "value": "no indications of liver toxicity"}, {"measurement": "reduction of opioid consumption", "setting": "[4]; low-dose intravenous (IV) ketamine", "value": 40, "unit": "%"}]}, {"smiles": "C[C@]12N[C@H](Cc3ccccc31)c1ccccc12", "note": "[MK-801]", "values": [{"measurement": "effect on analgesia", "setting": "NMDAR", "value": "anti-analgesic effect"}]}, {"smiles": "CN[C@@]1(c2ccccc2Cl)CCCCC1=O", "note": "[R-ketamine]", "values": [{"measurement": "psychotomimetic side effects and abuse liability", "setting": "[5]; animal models", "value": "free of psychotomimetic side effects and abuse liability"}, {"measurement": "antidepressant effectiveness versus S-ketamine", "setting": "[5]; model animal studies", "value": "more effective as an antidepressant than S-ketamine"}]}, {"smiles": "CN[C@]1(c2ccccc2Cl)CCCCC1=O", "note": "[S-ketamine]", "values": [{"measurement": "in vivo potency difference between the two enantiomers", "setting": "[6]", "value": "about 4 times"}, {"measurement": "potency in NMDAR binding relative to R-ketamine", "setting": "NMDA receptor", "value": "about 4 times"}, {"measurement": "potency relative to racemic ketamine", "setting": "orofacial pain", "value": 2, "unit": "times"}, {"measurement": "mean difference in morphine consumption versus placebo", "setting": "[7]", "value": 42, "unit": "mg"}]}]}
